Measurements: patent publication US20250332178A1, “METHODS OF TREATING MYCOBACTERIAL INFECTIONS USING TETRACYCLINE COMPOUNDS” (priority 2018, published 2025)
≈ marks a conversion by molar mass, not a printed value. Read-outs that look alike come from different tables or passages of the source.

Assays:
Mycobacterium abscessus = test: MIC by broth microdilution in CAMHB, clinical isolates; format: cell-based; conditions: Mycobacteroides abscessus; for MIC: read-out: MIC
Experimental: (§1) A total of 24 clinical isolates of Mycobacterium abscessus, 22 clinical isolates of Mycobacterium chelonae and 20 clinical isolates of Mycobacterium fortuitum were tested in the study. The study also used the antibiotics tigecycline, doxycycline and amikacin for comparison purposes. […] Amikacin was dissolved in DMSO prior to freezing at −20° C. For susceptibility testing, stock solutions of antibiotic compounds were serially diluted in 50 μL of cation adjusted Mueller-Hinton broth (CAMHB) in polystryrene 96-well round-bottom microtiter plates. To each well, 50 μL of the appropriate mycobacterial cell suspension was added to yield a final concentration of about 1×10^5 CFU/mL. The inoculum used for each isolate was measured by titration in saline with Tween 80 and plating on MH agar. The Mycobacterium abscessus and Mycobacterium fortuitum titer plates were incubated at 37° C. in ambient air for 3-4 days and 5-7 days, respectively. The Mycobacterium chelonae titer plates were incubated at 30° C. in ambient air for 3-5 days. Each isolate was tested at least in duplicate. The MIC was defined as the lowest concentration of antimicrobial agent yielding no visible turbidity.

Mycobacterium chelonae = test: as above; format: cell-based; conditions: 22 clinical isolates; read-out: MIC50
Experimental: as §1

Mycobacterium fortuitum = test: as above; format: cell-based; conditions: Mycolicibacterium fortuitum; for MIC: read-out: MIC
Experimental: as §1

[1] = test system: rapid-growing mycobacteria (RGM) isolates; test: MIC (CLSI broth dilution), all RGM isolates; format: cell-based, nontuberculous mycobacteria; conditions: RGM clinical isolates, all species

CN(C)c1cc(CNCC(C)(C)C)c(O)c2c1C[C@H]1C[C@H]3C(N(C)C)C(O)=C(C(N)=O)C(=O)[C@@]3(O)C(O)=C1C2=O (stereo partly drawn) [Omadacycline, (4aS,5aR,12aS)-4,7-bis(dimethylamino)-3,10,12,12a-tetrahydroxy-9-((neopentylamino)methyl)-1,11-dioxo-1,4,4a,5,5a,6,11,12a-octahydrotetracene-2-carboxamide]
MIC (Mycobacterium abscessus; isolate No. 1, BB2): 1 µg/mL (≈ 1.8 µM) | MIC (Mycobacterium abscessus; isolate No. 2, BB4): 4 µg/mL (≈ 7.19 µM) | MIC (Mycobacterium abscessus; isolate No. 3, 5922): 0.125 µg/mL (≈ 0.225 µM) | MIC (Mycobacterium abscessus; isolate No. 4, BB3): 0.06 µg/mL (≈ 0.108 µM) | MIC (Mycobacterium abscessus; isolate No. 5, BB6): 0.06 µg/mL (≈ 0.108 µM) | MIC (Mycobacterium abscessus; isolate No. 6, 5908): 1 µg/mL (≈ 1.8 µM) | MIC (Mycobacterium abscessus; isolate No. 7, BB7): 2 µg/mL (≈ 3.59 µM) | MIC (Mycobacterium abscessus; isolate No. 8, 6031): 0.25 µg/mL (≈ 0.449 µM) | MIC (Mycobacterium abscessus; isolate No. 9, 5785): 0.25 µg/mL (≈ 0.449 µM) | MIC (Mycobacterium abscessus; isolate No. 10, BB8): 1 µg/mL (≈ 1.8 µM) | MIC (Mycobacterium abscessus; isolate No. 11, 6111): 1 µg/mL (≈ 1.8 µM) | MIC (Mycobacterium abscessus; isolate No. 12, 6005): 1 µg/mL (≈ 1.8 µM) | MIC (Mycobacterium abscessus; isolate No. 13, 5605): 1 µg/mL (≈ 1.8 µM) | MIC (Mycobacterium abscessus; isolate No. 14, 5931): 1 µg/mL (≈ 1.8 µM) | MIC (Mycobacterium abscessus; isolate No. 15, BB1): 2 µg/mL (≈ 3.59 µM) | MIC (Mycobacterium abscessus; isolate No. 16, BB5): 2 µg/mL (≈ 3.59 µM) | MIC (Mycobacterium abscessus; isolate No. 17, 5812): 2 µg/mL (≈ 3.59 µM) | MIC (Mycobacterium abscessus; isolate No. 18, 5901): 1 µg/mL (≈ 1.8 µM) | MIC (Mycobacterium abscessus; isolate No. 19, 5960): 8 µg/mL (≈ 14.4 µM) | MIC (Mycobacterium abscessus; isolate No. 20, 6142): 1 µg/mL (≈ 1.8 µM) | MIC (Mycobacterium abscessus; isolate No. 21, 5922): 0.5 µg/mL (≈ 0.898 µM) | MIC (Mycobacterium abscessus; isolate No. 22, LT 949): 1 µg/mL (≈ 1.8 µM) | MIC (Mycobacterium abscessus; isolate No. 23, 6025): 1 µg/mL (≈ 1.8 µM) | MIC (Mycobacterium abscessus; isolate No. 24, 6153): 2 µg/mL (≈ 3.59 µM) | MIC50 (Mycobacterium abscessus; 24 clinical isolates (tigecycline: subset N=14), read-out: MIC50): 1 µg/mL (≈ 1.8 µM) | MIC90 (Mycobacterium abscessus; 24 clinical isolates (tigecycline: subset N=14), read-out: MIC90): 2 µg/mL (≈ 3.59 µM) | MIC50 (Mycobacterium chelonae): 0.125 µg/mL (≈ 0.225 µM) | MIC (Mycobacterium fortuitum; isolate No. 1, 3349): 0.25 µg/mL (≈ 0.449 µM) | MIC (Mycobacterium fortuitum; isolate No. 2, 3499): 0.03 µg/mL (≈ 0.0539 µM) | MIC (Mycobacterium fortuitum; isolate No. 3, 2797): 0.125 µg/mL (≈ 0.225 µM) | MIC (Mycobacterium fortuitum; isolate No. 4, 32): 0.25 µg/mL (≈ 0.449 µM) | MIC (Mycobacterium fortuitum; isolate No. 5, 33): 0.125 µg/mL (≈ 0.225 µM) | MIC (Mycobacterium fortuitum; isolate No. 6, 3489): 0.125 µg/mL (≈ 0.225 µM) | MIC (Mycobacterium fortuitum; isolate No. 7, 3491): 0.125 µg/mL (≈ 0.225 µM) | MIC (Mycobacterium fortuitum; isolate No. 8, 54): 0.06 µg/mL (≈ 0.108 µM) | MIC (Mycobacterium fortuitum; isolate No. 9, 38): 0.125 µg/mL (≈ 0.225 µM) | MIC (Mycobacterium fortuitum; isolate No. 10, 36): 0.125 µg/mL (≈ 0.225 µM) | MIC (Mycobacterium fortuitum; isolate No. 11, 3480): 0.25 µg/mL (≈ 0.449 µM) | MIC (Mycobacterium fortuitum; isolate No. 12, 3126): 0.125 µg/mL (≈ 0.225 µM) | MIC (Mycobacterium fortuitum; isolate No. 13, 3579): 0.25 µg/mL (≈ 0.449 µM) | MIC (Mycobacterium fortuitum; isolate No. 14, 7484): 0.5 µg/mL (≈ 0.898 µM) | MIC (Mycobacterium fortuitum; isolate No. 15, 3488): 0.5 µg/mL (≈ 0.898 µM) | MIC (Mycobacterium fortuitum; isolate No. 16, 3276): 0.25 µg/mL (≈ 0.449 µM) | MIC (Mycobacterium fortuitum; isolate No. 17, 3442): 1 µg/mL (≈ 1.8 µM) | MIC (Mycobacterium fortuitum; isolate No. 18, 3316): 0.125 µg/mL (≈ 0.225 µM) | MIC (Mycobacterium fortuitum; isolate No. 19, 3490): 0.25 µg/mL (≈ 0.449 µM) | MIC (Mycobacterium fortuitum; isolate No. 20, 2491): 1 µg/mL (≈ 1.8 µM) | MIC50 (Mycobacterium fortuitum; 20 clinical isolates, read-out: MIC50): 0.125 µg/mL (≈ 0.225 µM) | MIC90 (Mycobacterium fortuitum; 20 clinical isolates, read-out: MIC90): 0.5 µg/mL (≈ 0.898 µM) | MIC50 ([1]; read-out: MIC50): 0.25 µg/mL (≈ 0.449 µM) | MIC90 ([1]; read-out: MIC90): 0.5 µg/mL (≈ 0.898 µM)
